Data on 1 molecule can be found in patent US20240174744A1, “METHODS OF TREATMENT USING PROTEIN BINDERS TO IRHOM2 EPITOPES” (SCIRHOM GMBH, priority 2021, published 2024).

In the test the test system is PMA-induced release of HB-EGF from THP-1 cells. As to the kind of experiment: ELISA-based HB-EGF release assay, PMA-stimulated THP-1 cells. Conditions: Homo sapiens, murine (m) and chimeric (ch) antibodies 3 μg/ml, Batimastat 10 μM, PMA 25 ng/ml, 6 hours. It counts as cell-based. On the procedure: In the following study, ELISA-based HB-EGF release assays were performed to analyze the inhibitory effects of the antibodies of the present disclosure on PMA-induced release of endogenous HB-EGF from human THP-1 monocytic cells.
In brief, on day 1, Nunc black MaxiSorp® 96-well plates (Thermo Fisher Scientific, USA) were coated for 7 hours with 100 μl per well of rat anti-human HB-EGF capture antibody (provided as part of the DuoSet ELISA kit) at 2 μg/ml TBS at room temperature. Capture antibody solution was removed and MaxiSorp® plates were blocked with 300 μl per well of TBS, 1% BSA at room temperature for 3 hours. […]
Subsequently, cells (except those for unstimulated controls) were stimulated with 20 μl per well of PMA (Sigma-Aldrich, USA) at 150 ng/ml in growth medium for a final concentration of 25 ng/ml at 37° C., 5% CO2 for 6 hours. […] Using an infinite M1000 (Tecan Group, Switzerland) microplate reader, the fluorescence of each well was collected at an excitation wavelength of 435 nm and an emission wavelength of 555 nm.

What is called inhibition is the relative decrease from the control value, in per cent. Low values mean little suppression, high ones strong suppression. `CNC(=O)[C@H](Cc1ccccc1)NC(=O)[C@H](CC(C)C)[C@H](CSc1cccs1)C(=O)NO` [Batimastat] had an inhibition at 10 µM of 98.9%.
